# Reference: patent US20150148234A1, “HERBICIDE-RESISTANT SUNFLOWER PLANTS WITH MULTIPLE HERBICIDE RESISTANT ALLELES OF AHASL1 AND METHODS OF USE” (NIDERA S.A., priority 2013, published 2015)
# How the values were obtained:
# Assay in all cases: imazapyr whole plant greenhouse test (Example 2)
# Format in all cases: in vivo
# [1] = test system: sunflower hybrid H2 (L3 × L4), A122T
# Procedure: (§1) Seeds were sown in Petri dishes and, after germination, plantlets were transplanted to pots of 10 cm of diameter in a potting media consisting of equal parts of vermiculite, soil and sand. Plants were grown in a greenhouse under natural light conditions supplemented with 400 W sodium halide lamps to provide a 16 hr daylength. Day/night temperatures were 25 and 20 ° C., respectively. At the V2-V4 stage (Schneiter & Miller (1981) Crop Sci. 21:901-903) 10 plants of each genotype were randomly assigned to each treatment consisting of eight imazapyr doses (0, 40, 80, 160, 240, 320, 400 and 480 g ai/ha, corresponding to untreated, 0.5×, 1×, 2×, 3×, 4×, 5× and 6×, respectively), and a zero-time biomass determination. Experiment was arranged as a randomized block design with a full factorial (sunflower line×treatment) arrangement of treatments and 10 replications.
# (§2) On the day of herbicide application ten plants of each genotype were cut at the cotyledonal node and dried at 60° C. for 48 hrs for zero-time dried weight determination.
# (§3) The remaining plants were maintained for 14 days after imazapyr treatment (DAT) and their height, Phytotoxicity Index (PI) and above ground dry biomass were determined Height was determined as the distance between the cotyledonal node and the apex of each plant. Above ground biomass data from each line were converted to biomass accumulation after application by subtracting the appropriate average zero- time biomass from each sample. Dry biomass data were converted to percentages of the untreated control plants within each line to allow direct comparisons between groups.
# [2] = test system: sunflower line L3 (cmsGM40), A122T
# Procedure: as §1, §2, §3
# [3] = test system: sunflower line L4, A122T
# Procedure: as §1, §2, §3
smiles,measurement,setting,value
CC(C)C1(C)N=C(c2ncccc2C(=O)O)NC1=O (stereo not drawn) [imazapyr],Phytotoxicity Index (0-9) 14 days after treatment,"[1]; dose 0.5 (0.5x, 40 g ai/ha)",0.5
same,"biomass accumulation 14 days after treatment, % of untreated","[1]; dose 0.5 (0.5x, 40 g ai/ha)",100%
same,"plant height 14 days after treatment, % of untreated","[1]; dose 0.5 (0.5x, 40 g ai/ha)",99.2%
same,Phytotoxicity Index (0-9) 14 days after treatment,"[1]; dose 1 (1x, 80 g ai/ha)",0.5
same,"biomass accumulation 14 days after treatment, % of untreated","[1]; dose 1 (1x, 80 g ai/ha)",97.2%
same,"plant height 14 days after treatment, % of untreated","[1]; dose 1 (1x, 80 g ai/ha)",98.6%
same,Phytotoxicity Index (0-9) 14 days after treatment,"[1]; dose 2 (2x, 160 g ai/ha)",0.5
same,"biomass accumulation 14 days after treatment, % of untreated","[1]; dose 2 (2x, 160 g ai/ha)",97.9%
same,"plant height 14 days after treatment, % of untreated","[1]; dose 2 (2x, 160 g ai/ha)",100.3%
same,Phytotoxicity Index (0-9) 14 days after treatment,"[1]; dose 3 (3x, 240 g ai/ha)",0.5
same,"biomass accumulation 14 days after treatment, % of untreated","[1]; dose 3 (3x, 240 g ai/ha)",98.2%
same,"plant height 14 days after treatment, % of untreated","[1]; dose 3 (3x, 240 g ai/ha)",99.6%
same,Phytotoxicity Index (0-9) 14 days after treatment,"[1]; dose 4 (4x, 320 g ai/ha)",0.5
same,"biomass accumulation 14 days after treatment, % of untreated","[1]; dose 4 (4x, 320 g ai/ha)",97.8%
same,"plant height 14 days after treatment, % of untreated","[1]; dose 4 (4x, 320 g ai/ha)",101.0%
same,Phytotoxicity Index (0-9) 14 days after treatment,"[1]; dose 5 (5x, 400 g ai/ha)",0.5
same,"biomass accumulation 14 days after treatment, % of untreated","[1]; dose 5 (5x, 400 g ai/ha)",85.1%
same,"plant height 14 days after treatment, % of untreated","[1]; dose 5 (5x, 400 g ai/ha)",87.0%
same,Phytotoxicity Index (0-9) 14 days after treatment,"[1]; dose 6 (6x, 480 g ai/ha)",0.5
same,"biomass accumulation 14 days after treatment, % of untreated","[1]; dose 6 (6x, 480 g ai/ha)",79.5%
same,"plant height 14 days after treatment, % of untreated","[1]; dose 6 (6x, 480 g ai/ha)",79.6%
same,Phytotoxicity Index (0-9) 14 days after treatment,"[2]; dose 0.5 (0.5x, 40 g ai/ha)",0.4
same,"biomass accumulation 14 days after treatment, % of untreated","[2]; dose 0.5 (0.5x, 40 g ai/ha)",96.6%
same,"plant height 14 days after treatment, % of untreated","[2]; dose 0.5 (0.5x, 40 g ai/ha)",100.4%
same,Phytotoxicity Index (0-9) 14 days after treatment,"[2]; dose 1 (1x, 80 g ai/ha)",0.4
same,"biomass accumulation 14 days after treatment, % of untreated","[2]; dose 1 (1x, 80 g ai/ha)",93.9%
same,"plant height 14 days after treatment, % of untreated","[2]; dose 1 (1x, 80 g ai/ha)",99.9%
same,Phytotoxicity Index (0-9) 14 days after treatment,"[2]; dose 2 (2x, 160 g ai/ha)",0.4
same,"biomass accumulation 14 days after treatment, % of untreated","[2]; dose 2 (2x, 160 g ai/ha)",81.6%
same,"plant height 14 days after treatment, % of untreated","[2]; dose 2 (2x, 160 g ai/ha)",92.0%
same,Phytotoxicity Index (0-9) 14 days after treatment,"[2]; dose 3 (3x, 240 g ai/ha)",0.5
same,"biomass accumulation 14 days after treatment, % of untreated","[2]; dose 3 (3x, 240 g ai/ha)",75.8%
same,"plant height 14 days after treatment, % of untreated","[2]; dose 3 (3x, 240 g ai/ha)",90.5%
same,Phytotoxicity Index (0-9) 14 days after treatment,"[2]; dose 4 (4x, 320 g ai/ha)",1.0
same,"biomass accumulation 14 days after treatment, % of untreated","[2]; dose 4 (4x, 320 g ai/ha)",75.0%
same,"plant height 14 days after treatment, % of untreated","[2]; dose 4 (4x, 320 g ai/ha)",90.8%
same,Phytotoxicity Index (0-9) 14 days after treatment,"[2]; dose 5 (5x, 400 g ai/ha)",2.0
same,"biomass accumulation 14 days after treatment, % of untreated","[2]; dose 5 (5x, 400 g ai/ha)",60.1%
same,"plant height 14 days after treatment, % of untreated","[2]; dose 5 (5x, 400 g ai/ha)",84.4%
same,Phytotoxicity Index (0-9) 14 days after treatment,"[2]; dose 6 (6x, 480 g ai/ha)",2.5
same,"biomass accumulation 14 days after treatment, % of untreated","[2]; dose 6 (6x, 480 g ai/ha)",59.6%
same,"plant height 14 days after treatment, % of untreated","[2]; dose 6 (6x, 480 g ai/ha)",84.4%
same,Phytotoxicity Index (0-9) 14 days after treatment,"[3]; dose 0.5 (0.5x, 40 g ai/ha)",0.0
same,"biomass accumulation 14 days after treatment, % of untreated","[3]; dose 0.5 (0.5x, 40 g ai/ha)",100.0%
same,"plant height 14 days after treatment, % of untreated","[3]; dose 0.5 (0.5x, 40 g ai/ha)",100.0%
same,Phytotoxicity Index (0-9) 14 days after treatment,"[3]; dose 1 (1x, 80 g ai/ha)",0.0
same,"biomass accumulation 14 days after treatment, % of untreated","[3]; dose 1 (1x, 80 g ai/ha)",99.1%
same,"plant height 14 days after treatment, % of untreated","[3]; dose 1 (1x, 80 g ai/ha)",100.0%
same,Phytotoxicity Index (0-9) 14 days after treatment,"[3]; dose 2 (2x, 160 g ai/ha)",0.0
same,"biomass accumulation 14 days after treatment, % of untreated","[3]; dose 2 (2x, 160 g ai/ha)",97.0%
same,"plant height 14 days after treatment, % of untreated","[3]; dose 2 (2x, 160 g ai/ha)",101.8%
same,Phytotoxicity Index (0-9) 14 days after treatment,"[3]; dose 3 (3x, 240 g ai/ha)",0.0
same,"biomass accumulation 14 days after treatment, % of untreated","[3]; dose 3 (3x, 240 g ai/ha)",96.1%
same,"plant height 14 days after treatment, % of untreated","[3]; dose 3 (3x, 240 g ai/ha)",97.0%
same,Phytotoxicity Index (0-9) 14 days after treatment,"[3]; dose 4 (4x, 320 g ai/ha)",0.0
same,"biomass accumulation 14 days after treatment, % of untreated","[3]; dose 4 (4x, 320 g ai/ha)",84.3%
same,"plant height 14 days after treatment, % of untreated","[3]; dose 4 (4x, 320 g ai/ha)",92.1%
same,Phytotoxicity Index (0-9) 14 days after treatment,"[3]; dose 5 (5x, 400 g ai/ha)",0.0
same,"biomass accumulation 14 days after treatment, % of untreated","[3]; dose 5 (5x, 400 g ai/ha)",77.5%
same,"plant height 14 days after treatment, % of untreated","[3]; dose 5 (5x, 400 g ai/ha)",84.8%
same,Phytotoxicity Index (0-9) 14 days after treatment,"[3]; dose 6 (6x, 480 g ai/ha)",0.5
same,"biomass accumulation 14 days after treatment, % of untreated","[3]; dose 6 (6x, 480 g ai/ha)",70.7%
same,"plant height 14 days after treatment, % of untreated","[3]; dose 6 (6x, 480 g ai/ha)",79.8%
